Like-named read-outs stand apart in the source and are kept apart here.
Assays:
[1] = biological target: dopamine D2 receptor (Mus musculus, UniProt P61168); assay: biochemical; type: biochemical
Experimental: Vasa deferentia from male BALB/C mice weighing approximately 30 g were removed and placed in isolated organ baths containing magnesium-free modified Krebs-Henseleit solution which was gassed with 95% O2 and 5% CO2 and maintained at 37° C. Tissues were set up under resting tension of 0.5 g and stimulated electrically at 60 volts, 0.1 Hz and 1 msec duration to produce a series of twitch responses. Tissues were pretreated with propranolol (1 μM) to block β-adrenoceptors, idazoxan (3 μM) to block α2 -adrenoceptors receptors, and ascorbic acid (100 μM) for 60 min before the addition of test compound.

[2] = system: denervated supersensitive postsynaptic dopamine receptors; assay: In vivo functional test: contralateral circling in rats with unilateral 6-hydroxydopamine lesions of the substantia nigra; set-up: species or system rat; conditions: contralateral circling, rats, unilateral 6-hydroxydopamine lesion
Excerpt: Dopamine agonists produce contralateral circling behavior in rats in which unilateral lesions of the substantial nigra are made by prior injection of 6-hydroxydopamine. The circling is thought to be mediated by stimulation of denervated supersensitive postsynaptic dopamine receptors (Marshall and Ungerstedt, 1977, Eur. J. Pharmacol., 41:361-367).

[3] = biological target: Dopamine D2 receptor (Bos taurus, UniProt P20288); assay: biochemical; type: binding, bovine
Sequence of Dopamine D2 receptor (P20288 whole entry): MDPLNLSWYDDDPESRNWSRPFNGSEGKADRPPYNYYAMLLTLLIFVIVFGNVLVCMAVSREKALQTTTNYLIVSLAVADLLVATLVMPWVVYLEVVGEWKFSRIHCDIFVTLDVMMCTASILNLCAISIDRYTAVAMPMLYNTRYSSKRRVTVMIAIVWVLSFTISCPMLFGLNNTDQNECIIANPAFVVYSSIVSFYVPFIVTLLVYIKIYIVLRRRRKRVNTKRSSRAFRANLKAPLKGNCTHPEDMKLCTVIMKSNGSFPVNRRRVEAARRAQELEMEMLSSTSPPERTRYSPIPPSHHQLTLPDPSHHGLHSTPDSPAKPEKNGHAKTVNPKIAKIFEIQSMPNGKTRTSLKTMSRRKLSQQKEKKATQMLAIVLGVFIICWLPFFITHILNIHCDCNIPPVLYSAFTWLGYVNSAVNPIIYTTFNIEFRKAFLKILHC
Experimental: (§1) Membranes were prepared using a Brinkmann Polytron and collected by centrifugation. Membrane sources were bovine caudate (D2,D1) or rat cortex (α2). The membranes were washed, resuspended, and incubated at 37° C. for 30 min. in either the presence (rat cortex) of 1 μ/ml adenosine deaminase or absence (bovine caudate) of 0.1 μ/ml adenosine deaminase. Membranes were centrifuged, washed once and frozen at -70° C. until used. Immediately before use, the membranes were thawed, washed once, and resuspended to a final concentration of 0.5-2 mg/ml. Assays were initiated by addition of membranes. For D2 and D1 assays, the radioligands and conditions used were ^3 H-Spiperone (RT, 75 min.) and ^3 H-SCH23390 (37° C., 15 min.), respectively. For α2 assays, ^3 H-PAC (RT, 30 min.) was used Assays were terminated by filtration using a Brandel cell harvester over Whatman GF/B filters that had been pretreated with 0.1% polyethylenimine. […]

[4] = biological target: Dopamine D1 receptor (Bos taurus, UniProt Q95136); assay: biochemical; type: binding, bovine
Sequence of Dopamine D1 receptor (Q95136 whole entry): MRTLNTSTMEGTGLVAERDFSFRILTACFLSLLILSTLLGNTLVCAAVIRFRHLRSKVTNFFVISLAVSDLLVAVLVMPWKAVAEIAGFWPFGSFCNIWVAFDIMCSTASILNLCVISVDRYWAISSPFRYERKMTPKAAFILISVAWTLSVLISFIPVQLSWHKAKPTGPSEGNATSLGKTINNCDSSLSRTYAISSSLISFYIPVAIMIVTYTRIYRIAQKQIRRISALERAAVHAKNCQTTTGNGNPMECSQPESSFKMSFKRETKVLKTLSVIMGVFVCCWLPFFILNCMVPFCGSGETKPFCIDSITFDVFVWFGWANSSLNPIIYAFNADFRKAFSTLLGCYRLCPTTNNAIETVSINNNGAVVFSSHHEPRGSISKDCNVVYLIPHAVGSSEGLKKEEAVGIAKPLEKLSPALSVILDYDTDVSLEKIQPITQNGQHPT
Experimental: as §1

[5] = biological target: adrenergic α2 receptor (Rattus norvegicus, UniProt P22909); assay: Adrenergic α2 in vitro functional test (rat vas deferens, inhibition of twitch); type: biochemical
Experimental: (§2) Vasa deferentia from male Sprague-Dawley rats weighing between 150-250 g were removed and placed in isolated organ baths containing Krebs-Henseleitsolution under a resting tension of 1 g. All other set up conditions were identical to those used for the mouse was deferens. Tissues were pretreated with propranolol (1 μM), ascorbic acid (100 μM) and the α1 -adrenergic antagonist prazosin (0.3 or 1 μM) for 60 min before the addition of test compound.

[6] = biological target: T1, adrenergic α2 receptor (Rattus norvegicus, UniProt P22909); assay: as above; type: biochemical; remark: listed apart in the source
T1 sequence (P22909 1-465): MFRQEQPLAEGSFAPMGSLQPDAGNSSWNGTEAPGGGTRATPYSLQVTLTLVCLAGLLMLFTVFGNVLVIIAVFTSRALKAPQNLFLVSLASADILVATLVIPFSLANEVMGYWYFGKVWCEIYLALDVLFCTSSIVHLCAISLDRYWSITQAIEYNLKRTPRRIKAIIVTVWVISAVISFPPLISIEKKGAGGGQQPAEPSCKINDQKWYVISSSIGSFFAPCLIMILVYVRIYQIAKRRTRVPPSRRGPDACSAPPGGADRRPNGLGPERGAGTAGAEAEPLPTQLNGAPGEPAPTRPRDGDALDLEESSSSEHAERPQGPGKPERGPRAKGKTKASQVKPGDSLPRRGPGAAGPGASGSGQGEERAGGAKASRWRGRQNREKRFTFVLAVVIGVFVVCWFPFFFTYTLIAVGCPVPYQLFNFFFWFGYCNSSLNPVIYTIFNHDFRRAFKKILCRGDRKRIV
Experimental: as §2

[7] = concentration that produces 50% of the maximal inhibition of twitch, mouse vas deferens, read-out: D2 A50
[8] = bovine caudate membranes, 3H-Spiperone, RT, 75 min, read-out: D2 K1
[9] = bovine caudate membranes, 3H-SCH23390, 37° C., 15 min, read-out: D1 K1
[10] = concentration that produces 50% of the maximal inhibition of twitch, rat vas deferens, read-out: a2 A50

Sequence of dopamine D2 receptor (P61168 whole entry): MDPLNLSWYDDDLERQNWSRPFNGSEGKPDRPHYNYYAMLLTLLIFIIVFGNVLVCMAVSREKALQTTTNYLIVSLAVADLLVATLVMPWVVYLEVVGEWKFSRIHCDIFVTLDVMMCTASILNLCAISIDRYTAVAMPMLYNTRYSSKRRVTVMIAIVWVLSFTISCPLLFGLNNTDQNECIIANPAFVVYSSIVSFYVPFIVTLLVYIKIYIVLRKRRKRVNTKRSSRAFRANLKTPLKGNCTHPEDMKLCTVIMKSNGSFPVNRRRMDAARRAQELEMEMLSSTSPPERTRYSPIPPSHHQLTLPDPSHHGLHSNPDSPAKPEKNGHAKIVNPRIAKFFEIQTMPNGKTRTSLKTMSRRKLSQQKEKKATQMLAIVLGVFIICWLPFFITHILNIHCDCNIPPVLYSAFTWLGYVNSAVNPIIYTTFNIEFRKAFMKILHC

| Structure (SMILES) | EC50 [1, 7] | Ki [3, 8] | Ki [4, 9] | Specificity Ratio (a2 A50/D2 A50) [1] | Selectivity Ratio (D1 K1/D2 K1) [3] | EC50 [6, 10] | ED50 [2] | EC50 [5] | EC50 [1] | Ki [3] | Ki [4] | EC50 [6] |
| --- | --- | --- | --- | --- | --- | --- | --- | --- | --- | --- | --- | --- |
| CCCN(CCOC)[C@H]1CCc2c(ccc(O)c2O)C1 [Example 4] | 0.603 nM | 363 nM | 7080 nM |  |  |  | 0.006 µmol/kg | 42.7 nM |  |  |  |  |
| CCCCOCCN(CCC)[C@H]1CCc2c(ccc(O)c2O)C1 [Example 8, (S)-6-[[2-(butoxy)ethyl]propylamino]-5,6,7,8-tetrahydro-1,2-naphthalenediol] | 0.269 nM | 112 nM | 5890 nM | 398 | 52 | 107 nM | 0.004 µmol/kg |  |  |  |  |  |
| CCCN(CC1CCCCO1)[C@H]1CCc2c(O)cccc2C1 (stereo partly shown) [Example 20] | 1 nM | 1070 nM | 7080 nM | 191 | 7 | 190 nM | 0.030 µmol/kg |  |  |  |  |  |
| CCCN(CC1CCOC1)[C@H]1CCc2c(O)cccc2C1.Cl (stereo partly drawn) [Example 21, (6S)-5,6,7,8-tetrahydro-6-[[(tetrahydro-3-furanyl)methyl]propylamino]-1-naphthalenol, hydrochloride] | 0.977 nM | 151 nM | 3630 nM | 282 | 24 | 275 nM | 0.009 µmol/kg |  |  |  |  |  |
| CCCN(CCC)C1CCc2c(O)cccc2C1 (stereo not shown) [Example 39, 5-hydroxy-2-(di-n-propyl)aminotetralin, reference compound] |  |  |  | 120 | 5 |  | 0.010 µmol/kg |  | 2.14 nM | 790 nM | 3800 nM | 257 nM |
| CCCN(CCOC1CCCC1)[C@H]1CCc2c(ccc(O)c2O)C1 [Example 6] | 0.162 nM | 51 nM | 5010 nM | 537 | 98 | 87.1 nM | 0.008 µmol/kg |  |  |  |  |  |

Continued, in another order:

| EC50 [1, 7] | Ki [3, 8] | Ki [4, 9] | Specificity Ratio (a2 A50/D2 A50) [1] | Selectivity Ratio (D1 K1/D2 K1) [3] | EC50 [6, 10] | Structure (SMILES) | ED50 [2] | EC50 [5] | EC50 [1] | Ki [3] | Ki [4] | EC50 [6] |
| --- | --- | --- | --- | --- | --- | --- | --- | --- | --- | --- | --- | --- |
| 0.437 nM | 110 nM | 7410 nM | > 22900 | 68 | > 10000 nM | CCCN(CCC1CCCCO1)[C@H]1CCc2c(O)cccc2C1 (stereo partly shown) [Example 23] | 0.010 µmol/kg |  |  |  |  |  |
| 0.209 nM | 195 nM | 6610 nM | 71 | 34 | 14.8 nM | CCCN(CCC1CCOC1)[C@H]1CCc2c(ccc(O)c2O)C1 (stereo partly shown) [Example 14] | 0.030 µmol/kg |  |  |  |  |  |
| 1.29 nM | 30 nM | 4270 nM | 62 | 141 | 79.4 nM | CCCN(CCC1CCCO1)[C@H]1CCc2c(ccc(O)c2O)C1 (stereo partly shown) [Example 11] | 0.010 µmol/kg |  |  |  |  |  |

— patent US5382596A, “Substituted 2-aminotetralins” (priority 1993, dated 1995)
